Species: Rattus norvegicus
Test: DrugMatrix - Regimen: Daily Repeat
Format: toxicity, organism-based, Sprague-Dawley
Set-up: regimen Daily Repeat, gender Male, age 6-8 weeks
Settings: in vivo, sc, route subcutaneous, […]; for ABSOLUTE BASOPHIL / ABSOLUTE EOSINOPHIL / ABSOLUTE LYMPHOCYTE / ABSOLUTE MONOCYTE / ABSOLUTE SEGMENTED NEUTROPHIL / BASOPHIL / EOSINOPHIL / ERYTHROCYTE COUNT / HEMATOCRIT / HEMOGLOBIN / LEUKOCYTE COUNT / LYMPHOCYTE / MEAN CORPUSCULAR HEMOGLOBIN / MEAN CORPUSCULAR HEMOGLOBIN CONCENTRATION / MEAN CORPUSCULAR VOLUME / MONOCYTE / NEUTROPHIL / NUCLEATED RED BLOOD CELLS / PLATELET COUNT: tissue Blood; for ALANINE AMINOTRANSFERASE / ALBUMIN / ALKALINE PHOSPHATASE / ASPARTATE AMINOTRANSFERASE / BLOOD UREA NITROGEN / CARBON DIOXIDE / CHLORIDE / CHOLESTEROL / CREATINE PHOSPHOKINASE / CREATININE / GLUCOSE / LACTATE DEHYDROGENASE / LIPASE / PHOSPHORUS / POTASSIUM / SODIUM / TOTAL BILIRUBIN / TOTAL PROTEIN / URIC ACID: tissue Plasma
[1] = 56 mg/kg, 120 h, dose level M1, time 5 day
[2] = 72 h, dose 5.6 mg/Kg, dose level Low, time 3 day
[3] = 120 h, dose 5.6 mg/Kg, dose level Low, time 5 day

O=C(Nc1ccc(Br)cc1)c1cc(Br)cc(Br)c1O [TRIBROMSALAN]
ABSOLUTE BASOPHIL [1]: 0 CELLS/uL | ABSOLUTE EOSINOPHIL [1]: 183 CELLS/uL | ABSOLUTE LYMPHOCYTE [1]: 10057 CELLS/uL | ABSOLUTE MONOCYTE [1]: 145 CELLS/uL | ABSOLUTE SEGMENTED NEUTROPHIL [1]: 1315 CELLS/uL | BASOPHIL [1]: 0% | EOSINOPHIL [1]: 1% | ERYTHROCYTE COUNT [1]: 5.63 x10E6/uL | HEMATOCRIT [1]: 34.6% | HEMOGLOBIN [1]: 12.83 G/DL | LEUKOCYTE COUNT [1]: 11.7 x10E3/uL | LYMPHOCYTE [1]: 86.33% | MEAN CORPUSCULAR HEMOGLOBIN [1]: 22.8 pg | MEAN CORPUSCULAR HEMOGLOBIN CONCENTRATION [1]: 37.1 G/DL | MEAN CORPUSCULAR VOLUME [1]: 61.47 fL | MONOCYTE [1]: 1.33% | NEUTROPHIL [1]: 11.33% | NUCLEATED RED BLOOD CELLS [1]: 0 /100WBC | PLATELET COUNT [1]: 1090 x10E3/uL | ALANINE AMINOTRANSFERASE [1]: 51 u/L | ALBUMIN [1]: 3.77 G/DL | ALKALINE PHOSPHATASE [1]: 376.33 u/L | ASPARTATE AMINOTRANSFERASE [1]: 90 u/L | BLOOD UREA NITROGEN [1]: 16 mg/dL | CARBON DIOXIDE [1]: 24 mmol/L | CHLORIDE [1]: 99 MEQ/L | CHOLESTEROL [1]: 81.33 mg/dL | CREATINE PHOSPHOKINASE [1]: 578.33 u/L | CREATININE [1]: 0.19 mg/dL | GLUCOSE [1]: 142 mg/dL | LACTATE DEHYDROGENASE [1]: 171.33 u/L | LIPASE [1]: 7.33 u/L | PHOSPHORUS [1]: 11.13 mg/dL | POTASSIUM [1]: 6.14 MEQ/L | SODIUM [1]: 146.5 MEQ/L | TOTAL BILIRUBIN [1]: 0.23 mg/dL | TOTAL PROTEIN [1]: 6.23 G/DL | URIC ACID [1]: 1.13 mg/dL | ABSOLUTE BASOPHIL [2]: 0 CELLS/uL | ABSOLUTE EOSINOPHIL [2]: 0 CELLS/uL | ABSOLUTE LYMPHOCYTE [2]: 7670 CELLS/uL | ABSOLUTE MONOCYTE [2]: 0 CELLS/uL | ABSOLUTE SEGMENTED NEUTROPHIL [2]: 730 CELLS/uL | BASOPHIL [2]: 0% | EOSINOPHIL [2]: 0% | ERYTHROCYTE COUNT [2]: 4.92 x10E6/uL | HEMATOCRIT [2]: 32.37% | HEMOGLOBIN [2]: 12.33 G/DL | LEUKOCYTE COUNT [2]: 8.4 x10E3/uL | LYMPHOCYTE [2]: 91.67% | MEAN CORPUSCULAR HEMOGLOBIN [2]: 25.1 pg | MEAN CORPUSCULAR HEMOGLOBIN CONCENTRATION [2]: 38.13 G/DL | MEAN CORPUSCULAR VOLUME [2]: 65.77 fL | MONOCYTE [2]: 0% | NEUTROPHIL [2]: 8.33% | NUCLEATED RED BLOOD CELLS [2]: 0 /100WBC | PLATELET COUNT [2]: 800.67 x10E3/uL | ALANINE AMINOTRANSFERASE [2]: 47.33 u/L | ALBUMIN [2]: 4.3 G/DL | ALKALINE PHOSPHATASE [2]: 403.67 u/L | ASPARTATE AMINOTRANSFERASE [2]: 74.33 u/L | BLOOD UREA NITROGEN [2]: 15.33 mg/dL | CARBON DIOXIDE [2]: 24.33 mmol/L | CHLORIDE [2]: 101.67 MEQ/L | CHOLESTEROL [2]: 72.33 mg/dL | CREATINE PHOSPHOKINASE [2]: 270.67 u/L | CREATININE [2]: 0.18 mg/dL | GLUCOSE [2]: 163 mg/dL | LACTATE DEHYDROGENASE [2]: 143 u/L | LIPASE [2]: 8.33 u/L | PHOSPHORUS [2]: 13.13 mg/dL | POTASSIUM [2]: 6.25 MEQ/L | SODIUM [2]: 144.7 MEQ/L | TOTAL BILIRUBIN [2]: 0.3 mg/dL | TOTAL PROTEIN [2]: 5.97 G/DL | URIC ACID [2]: 2.13 mg/dL | ABSOLUTE BASOPHIL [3]: 0 CELLS/uL | ABSOLUTE EOSINOPHIL [3]: 126 CELLS/uL | ABSOLUTE LYMPHOCYTE [3]: 12819 CELLS/uL | ABSOLUTE MONOCYTE [3]: 78 CELLS/uL | ABSOLUTE SEGMENTED NEUTROPHIL [3]: 1743.67 CELLS/uL | BASOPHIL [3]: 0% | EOSINOPHIL [3]: 0.67% | ERYTHROCYTE COUNT [3]: 5.88 x10E6/uL | HEMATOCRIT [3]: 36.87% | HEMOGLOBIN [3]: 13.53 G/DL | LEUKOCYTE COUNT [3]: 14.77 x10E3/uL | LYMPHOCYTE [3]: 87% | MEAN CORPUSCULAR HEMOGLOBIN [3]: 23.07 pg | MEAN CORPUSCULAR HEMOGLOBIN CONCENTRATION [3]: 36.77 G/DL | MEAN CORPUSCULAR VOLUME [3]: 62.77 fL | MONOCYTE [3]: 0.67% | NEUTROPHIL [3]: 11.67% | NUCLEATED RED BLOOD CELLS [3]: 0 /100WBC | PLATELET COUNT [3]: 1236 x10E3/uL | ALANINE AMINOTRANSFERASE [3]: 46.33 u/L | ALBUMIN [3]: 4 G/DL | ALKALINE PHOSPHATASE [3]: 354.67 u/L | ASPARTATE AMINOTRANSFERASE [3]: 82.33 u/L | BLOOD UREA NITROGEN [3]: 17.67 mg/dL | CARBON DIOXIDE [3]: 27.33 mmol/L | CHLORIDE [3]: 101.67 MEQ/L | CHOLESTEROL [3]: 65.33 mg/dL | CREATINE PHOSPHOKINASE [3]: 261.33 u/L | CREATININE [3]: 0.2 mg/dL | GLUCOSE [3]: 152.67 mg/dL | LACTATE DEHYDROGENASE [3]: 145.67 u/L | LIPASE [3]: 8 u/L | PHOSPHORUS [3]: 11.87 mg/dL | POTASSIUM [3]: 6.3 MEQ/L | SODIUM [3]: 145.97 MEQ/L | TOTAL BILIRUBIN [3]: 0.13 mg/dL | TOTAL PROTEIN [3]: 5.97 G/DL | URIC ACID [3]: 1.5 mg/dL

Reference: ChEMBL document CHEMBL3885881, “DrugMatrix”
